In patent US7507727B2, “Substituted quinobenzoxazine analogs and methods of using thereof” (Cylene Pharmaceuticals, Inc., priority 2003, dated 2009):

biological target: c-Myc template DNA (c-myc quadruplex); experiment: Quadruplex binding / stop assay (Taq polymerase arrest, capillary electrophoresis); settings: read-out: S DATA; Table 1D, stop assay data

| SMILES | IC50 [µM] |
| --- | --- |
| CC(C)(C)OC(=O)NC1CCN(c2c(F)cc3c(=O)c(C(=O)NCCN4CCOCC4)cn4c3c2Oc2ccccc2-4)C1 (centres unmarked) [compound 1584] | > 15 |
| O=C(NCCCN1CCOCC1)c1cn2c3c(c(NCCN4CCCC4)c(F)cc3c1=O)Oc1ccccc1-2 [compound 1592] | > 15 |
| O=C(NCCN1CCCC1)c1cn2c3c(c(N4CCC(c5cnccn5)C4)ccc3c1=O)Oc1ccccc1-2 (centres unmarked) [compound 1722] | 3 |
| O=C(NCCN1CCCC1)c1cn2c3c(c(NCCN4CCOCC4)ccc3c1=O)Oc1cc3ccccc3cc1-2 [compound 1546] | > 15 |
| CN(CCCNc1c(F)cc2c(=O)c(C(=O)NCCC3CCCN3C)cn3c2c1Oc1cc2ccccc2cc1-3)c1ccccc1 (centres unmarked) [compound 1503] | 1.75 |
| O=C(NCCCN1CCOCC1)c1cn2c3c(c(NCCN4CCOCC4)ccc3c1=O)Oc1cc3ccccc3cc1-2 [compound 1548] | > 15 |
| COc1ccc(CCNc2c(F)cc3c(=O)c(C(=O)NCCN4CCCC4)cn4c3c2Oc2cc3ccccc3cc2-4)cc1OC [compound 1756] | 1.81 |
| CC(CNC(=O)c1cn2c3c(c(N4CCC(N)C4)c(F)cc3c1=O)Oc1cc3ccccc3cc1-2)c1ccccc1 (centres unmarked) [compound 1695] | > 15 |
| CN1CCCC1CCN(CC[C@@H]1CCCN1C)C(=O)c1cn2c3c(c(N4CCC(c5cnccn5)C4)c(F)cc3c1=O)Oc1cc3ccccc3cc1-2 (some centres unmarked) [compound 1754] | 5 |
| CN1CCCC1CCNC(=O)c1cn2c3c(c(NCc4ccccc4N4CCCCC4)c(F)cc3c1=O)Oc1cc3ccccc3cc1-2 (centres unmarked) [compound 1509] | > 15 |
| CCOC(=O)N1CCC(Nc2c(F)cc3c(=O)c(C(=O)NCCC4CCCN4C)cn4c3c2Oc2cc3ccccc3cc2-4)CC1 (centres unmarked) [compound 1485] | 1.75 |

More lines, now with the values ahead:

| IC50 [µM] | SMILES |
| --- | --- |
| > 15 | CN1CCN(CCCNc2c(F)cc3c(=O)c(C(=O)N4CCC(NC(=O)OC(C)(C)C)C4)cn4c3c2Oc2ccccc2-4)CC1 (centres unmarked) [compound 1575] |
| > 15 | CC(C)N1CCN(c2c(F)cc3c(=O)c(C(=O)N4CCC(N5CCCC5)CC4)cn4c3c2Oc2ccccc2-4)CC1 [compound 1569] |
| > 15 | CN(C)CC(C)(C)CNC(=O)c1cn2c3c(c(N4CCC(NC(=O)OC(C)(C)C)C4)c(F)cc3c1=O)Oc1ccccc1-2 (centres unmarked) [compound 1590] |
| > 15 | CN(C)CCCCNC(=O)c1cn2c3c(c(NCCCN4CCOCC4)ccc3c1=O)Oc1cc3ccccc3cc1-2 [compound 1532] |
| 1.75 | CN1CCCC1CCNC(=O)c1cn2c3c(c(NCCCO)c(F)cc3c1=O)Oc1cc3ccccc3cc1-2 (centres unmarked) [compound 1678] |
| 0.375 | CN1CCCC1CCNC(=O)c1cn2c3c(c(NCC4CC(C)(C)N(O)C4(C)C)c(F)cc3c1=O)Oc1cc3ccccc3cc1-2 (centres unmarked) [compound 1668] |
| 0.75 | CN(C)CCCNc1c(F)cc2c(=O)c(C(=O)NCCC3CCCN3C)cn3c2c1Oc1cc2ccccc2cc1-3 (centres unmarked) [compound 1500] |
| > 15 | NC1CCN(c2c(F)cc3c(=O)c(C(=O)NCCCN4CCCC4=O)cn4c3c2Oc2cc3ccccc3cc2-4)C1 (centres unmarked) [compound 1694] |
| 3 | CCN(CC)CCCCNC(=O)c1cn2c3c(c(N4CCC(N)C4)c(F)cc3c1=O)Oc1ccc(Cl)cc1-2 (centres unmarked) [compound 1803] |
| > 15 | CN1CCCC1CCNC(=O)c1cn2c3c(c(NCCCCCCO)c(F)cc3c1=O)Oc1cc3ccccc3cc1-2 (centres unmarked) [compound 1675] |
| > 15 | NC1CCN(C(=O)c2cn3c4c(c(N5CCC(N)C5)c(F)cc4c2=O)Oc2ccccc2-3)C1 (centres unmarked) [compound 1622] |
| > 15 | CCN(CC)CCCC(C)NC(=O)c1cn2c3c(c(N4CC5CCCNC5C4)ccc3c1=O)Oc1ccccc1-2 (centres unmarked) [compound 1730] |
| 8.6 | Cn1cccc1CN1CCN(c2c(F)cc3c(=O)c(C(=O)NCCN4CCCC4)cn4c3c2Oc2cc(Cl)ccc2-4)CC1 [compound 1830] |
| 1.75 | CN1CCCC1CCNC(=O)c1cn2c3c(c(N4CCC(N5CCCCC5)CC4)c(F)cc3c1=O)Oc1cc3ccccc3cc1-2 (centres unmarked) [compound 1483] |
| > 15 | COc1cccc(CCNC(=O)c2cn3c4c(c(N5CCC(N)C5)c(F)cc4c2=O)Oc2cc4ccccc4cc2-3)c1OC (centres unmarked) [compound 1702] |
| > 15 | NC1CCN(c2c(F)cc3c(=O)c(C(=O)NCCc4c[nH]c5ccccc45)cn4c3c2Oc2cc3ccccc3cc2-4)C1 (centres unmarked) [compound 1696] |

same assay, conditions: read-out: Stop Data c-Myc μM; concentration at which 50% of the DNA was arrested (arrested:full-length 1:1)

| SMILES | IC50 [µM] |
| --- | --- |
| CN1CCN(CCCNc2ccc3c(=O)c(C(=O)NCCCN4CCOCC4)cn4c3c2Oc2cc3ccccc3cc2-4)CC1 [compound 278] | 1.75 |
| CN1CCN(CCCNC(=O)c2cn3c4c(c(N5CCC(NC(=O)OC(C)(C)C)C5)c(F)c(N)c4c2=O)Oc2cc4ccccc4cc2-3)CC1 (centres unmarked) [compound 231] | 1.75 |
| CN1CCN(CCCNC(=O)c2cn3c4c(c(N5CC[C@@H](NC(=O)OC(C)(C)C)C5)c(F)cc4c2=O)Oc2cc4ccccc4cc2-3)CC1 [compound 64] | 2.5 |
| N[C@@H]1CCN(C(=O)c2cn3c4c(c(NCCCN5CCOCC5)c(F)cc4c2=O)Oc2c-3ccc3ccccc23)C1 [compound 83] | 2.5 |
| CN1CCN(CCCNc2c(F)cc3c(=O)c(C(=O)N4CCC(N)C4)cn4c5cc6c(=O)c7ccccc7c(=O)c6cc5oc2c34)CC1 (centres unmarked) [compound 95] | 2.5 |
| CN(C)CCCCNc1c(F)cc2c(=O)c(C(=O)NCCN3CCCC3)cn3c2c1Oc1c-3ccc2ccccc12 [compound 498] | 0.41 |
| CN1CCCC1CCNC(=O)c1cn2c3c(c(N4CCC(N5CCCC5)CC4)c(F)cc3c1=O)Oc1cc3ccccc3cc1-2 (centres unmarked) [compound 434] | 0.75 |
| N[C@@H]1CCN(C(=O)c2cn3c4c(c(NCCN5CCCC5)c(F)cc4c2=O)Oc2c-3ccc3ccccc23)C1 [compound 86] | 2.5 |
| CN(C)CCCCNC(=O)c1cn2c3c(c(NCCN4CCCC4)c(F)cc3c1=O)Oc1c-2ccc2ccccc12 [compound 473] | 0.62 |
| CC(C)(C)OC(=O)N[C@@H]1CCN(c2c(F)cc3c(=O)c(C(=O)NCCCN)cn4c3c2Oc2cc3ccccc3cc2-4)C1 [compound 428] | 0.75 |

Continued, values first:

| IC50 [µM] | SMILES |
| --- | --- |
| 1.75 | O=C(c1cn2c3c(c(NCCCNC4CCCCC4)c(F)cc3c1=O)Oc1cc3ccccc3cc1-2)N1CCOCC1 [compound 117] |
| 1.75 | Nc1c(F)c(NCCCN2CCOCC2)c2c3c1c(=O)c(C(=O)N1CCOCC1)cn3-c1cc3ccccc3cc1O2 [compound 222] |
| 0.75 | CN1CCCC1CCNc1ccc2c(=O)c(C(=O)NCCN3CCCC3)cn3c2c1Oc1cc2ccccc2cc1-3 (centres unmarked) [compound 448] |
| 1.75 | C[C@H](O)CNc1c(F)cc2c(=O)c(C(=O)NCCC3CCCN3C)cn3c2c1Oc1cc2ccccc2cc1-3 (some centres unmarked) [compound 294] |
| 0.18 | CN(C)CCCCNCCC(=O)N[C@@H]1CCN(c2c(F)cc3c(=O)c(C(=O)NCCCN4CCN(C)CC4)cn4c3c2Oc2cc3c(cc2-4)oc2ccccc23)C1 [compound 588] |
| 1.75 | CN(C)CCCNC(=O)c1cn2c3c(c(N4CCC(NC(=O)OC(C)(C)C)C4)c(F)cc3c1=O)Oc1cc3ccccc3cc1-2 (centres unmarked) [compound 242] |
| 1.75 | CN1CCCC1CCNC(=O)c1cn2c3c(c(N4CCC(C#N)(c5ccccc5)CC4)c(F)cc3c1=O)Oc1cc3ccccc3cc1-2 (centres unmarked) [compound 260] |
| 0.9 | CN1CCN(CCCNc2c(F)cc3c(=O)c(C(=O)NCCC4CCCN4C)cn4c5cc6c(=O)c7ccccc7c(=O)c6cc5oc2c34)CC1 (centres unmarked) [compound 349] |
| 2.5 | N[C@@H]1CCN(C(=O)c2cn3c4c(c(NCCN5CCOCC5)c(F)cc4c2=O)Oc2c-3ccc3ccccc23)C1 [compound 84] |
| 1.75 | CN(C)CCCCNc1ccc2c(=O)c(C(=O)NCCC3CCCN3C)cn3c2c1Oc1cc2ccccc2cc1-3 (centres unmarked) [compound 275] |
